# Source: patent publication EP1096022B1, “Immuno-stimulating polysaccharide substance from Phellinus spp. strain and use thereof” (KOREA INSTITUTE OF SCIENCE AND TECHNOLOGY, priority 1999, dated 2001)
# Tests used:
# [1] = system: B16F10 cutaneous cancer cells; assay: Viability of mice implanted intraperitoneally with B16F10 cells, co-administration with chemotherapeutics, 60 days; assay type: in vivo, mouse; settings: for Proportion (%): untreated = 100
# Text: (§1) A homogeneous plantation test system of B 16F 10 cutaneous cancer cell was utilized for the measurement of the anticancer activity upon co-administration of the polysaccharide substance and adriamycin. The cutaneous cancer cells were implanted in the peritoneal cavity of mice. Adriamycin was peritoneally administered to the mice for 12 days after tumor implantation while the polysaccharide substance was peritoneally administered from a week before the implantation to 12 days after the implantation. For 60 days, the viability of the mice was recorded everyday. Adriamycin was used at such low amounts as not to damage the mice.
# The cutaneous cancer cells were implanted in the peritoneal cavity of mice. […] For 60 days, the viability of the mice was recorded everyday. Mitomycin C was used at such low amounts as not to damage the mice.
# The cutaneous cancer cells were implanted in the peritoneal cavity of mice. […] For 60 days, the viability of the mice was recorded everyday. Cisplastin was used at such low amounts as not to damage the mice.
# as §1, with “B16F10” for “B 16F 10”, “5-fluoro uracil, as in the above experiments.” for “adriamycin.”, “5-fluoro uracil” for “Adriamycin”
# [2] = system: B16F10 mouse cutaneous cancer cells; assay: Direct cytotoxicity, sulforhodamin B method
# [3] = system: B16F10 cutaneous cancer cells; assay: Lung metastasis after tail-vein implantation of B16F10 cells, spots counted on the 14th day; assay type: in vivo, C57BL/6 mice
# Text: In order to test the polysaccharide substance for the prevention of cancer metastasis, B16F10 cutaneous cancer cells were implanted in the tail veins of C57BL/6 mice. On the 14th day after implantation, the lungs were isolated from the mice to investigate whether or to what extent cancer metastasis occurred. Adriamycin was peritoneally administered to the mice for 12 days after tumor implantation while the polysaccharide substance was peritoneally administered from a week before the implantation to 12 days after the implantation. […]
# [4] = system: NCl-H23 human lung cancer cells; assay: Direct cytotoxicity, sulforhodamin B method
# [5] = system: NCl-H23 lung cancer cells; assay: Human lung cancer cells implanted subcutaneously in nude mice, tumor size and weight; assay type: in vivo
# Description: The activity of the polysaccharide substance against human cancer was assayed using NCl-H23, a lung cancer cell line. Nude mice were subcutaneously implanted with NCl-H23 lung cancer cells. The polysaccharide substance and adriamycin were peritoneally administered to the nude mice for 12 days after cancer cell implantation. […] Because the nude mice were devoid of T-cells, their immunological competency was generally attributed to the activity of natural killer cells or macrophage cells. Therefore, the immunological enhancement obtained when administering the polysaccharide substance was meditated through these two type cells.
# [6] = 0.3 µg/mL, 2nd day after treatment
compound,measurement,setting,value
"O=c1[nH]cc(F)c(=O)[nH]1 [5-FU, 5-fluoro uracil]",Avg. Viability,[1]; 5-fluorouracil 1 mg/kg alone,33.0 days
same,Nos. of viable mice on the 60th day,[1]; 5-fluorouracil 1 mg/kg alone,0/10
same,Avg. Viability,"[1]; 5-fluorouracil 1 mg/kg alone, listed as 5-Fluorouracil",34.2 days
same,Proportion (%),[1]; 5-fluorouracil 1 mg/kg alone,187.8%
same,Avg. Viability,[1]; 5-fluorouracil 3 mg/kg alone,40.5 days
same,Nos. of viable mice on the 60th day,[1]; 5-fluorouracil 3 mg/kg alone,2/10
same,Avg. Viability,"[1]; 5-fluorouracil 3 mg/kg alone, listed as 5-fluorouracil",40.2 days
same,Proportion (%),[1]; 5-fluorouracil 3 mg/kg alone,222%
"N.N.[Cl][Pt][Cl] [C.P, Cisplatin]",Avg. Viability,[1]; cisplatin 0.5 mg/kg alone,33.0 days
same,Nos. of viable mice on the 60th day,[1]; cisplatin 0.5 mg/kg alone,0/10
same,Avg. Viability,"[1]; cisplatin 0.5 mg/kg alone, listed as Cisplatin",33 days
same,Proportion (%),[1]; cisplatin 0.5 mg/kg alone,182.3%
same,Avg. Viability,[1]; cisplatin 1.5 mg/kg alone,40.5 days
same,Nos. of viable mice on the 60th day,[1]; cisplatin 1.5 mg/kg alone,2/10
same,Proportion (%),[1]; cisplatin 1.5 mg/kg alone,223.8%
"CO[C@@]12[C@H](COC(N)=O)C3=C(C(=O)C(C)=C(N)C3=O)N1C[C@@H]1N[C@@H]12 [M.C, Mitomycin C]",Nos. of viable mice on the 60th day,[1]; mitomycin C 0.2 mg/kg alone,0/10
same,Avg. Viability,[1]; mitomycin C 0.6 mg/kg alone,38.0 days
same,Nos. of viable mice on the 60th day,[1]; mitomycin C 0.6 mg/kg alone,1/10
COc1cccc2c1C(=O)c1c(O)c3c(c(O)c1C2=O)C[C@@](O)(C(=O)CO)C[C@@H]3O[C@H]1C[C@H](N)[C@H](O)[C@H](C)O1 [Adriamycin],cell quantity (untreated = 100 %),[2]; [6],56%
same,cell quantity (untreated = 100 %),"[2]; 1 µg/mL, 2nd day",29%
same,cell quantity (untreated = 100 %),"[2]; 3 µg/mL, 2nd day",9%
same,cell quantity (untreated = 100 %),"[2]; 10 µg/mL, 2nd day",-10%
same,cell quantity (untreated = 100 %),"[2]; 30 µg/mL, 2nd day",-10%
same,cytotoxicity to cancer cells,[2]; overall statement,potent cytotoxicity
same,Avg. Viability,[1]; adriamycin 0.1 mg/kg alone,35.4 days
same,Nos. of viable mice on the 60th day,[1]; adriamycin 0.1 mg/kg alone,0/10
same,Proportion (%),[1]; adriamycin 0.1 mg/kg alone,195.6%
same,Avg. Viability,[1]; adriamycin 0.3 mg/kg alone,40.1 days
same,Nos. of viable mice on the 60th day,[1]; adriamycin 0.3 mg/kg alone,2/10
same,Proportion (%),[1]; adriamycin 0.3 mg/kg alone,240.9%
same,Nos. of Spots,[3]; adriamycin 1mg/kg alone,197
same,Nos. of Spots,[3]; adriamycin 3mg/kg alone,172
same,cell quantity (untreated = 100 %),[4]; [6],100%
same,cell quantity (untreated = 100 %),"[4]; 1 µg/mL, 2nd day",71%
same,cell quantity (untreated = 100 %),"[4]; 3 µg/mL, 2nd day",39%
same,cell quantity (untreated = 100 %),"[4]; 10 µg/mL, 2nd day",7%
same,cell quantity (untreated = 100 %),"[4]; 30 µg/mL, 2nd day",-1%
same,cytotoxicity to cancer cells,[4]; overall statement,potent cytotoxicity
same,Cell size,"[5]; 14th day, 1mg/kg peritoneally for 12 days",12 mm^3
same,Cell size,"[5]; 17th day, 1mg/kg",27 mm^3
same,Cell size,"[5]; 18th day, 1mg/kg",34 mm^3
same,Cell size,"[5]; 19th day, 1mg/kg",33 mm^3
same,Final Cancer Weight,"[5]; 19th day, 1mg/kg",95
